According to ChEMBL document CHEMBL1135322, “Glutathione-like tripeptides as inhibitors of glutathionylspermidine synthetase. Part 1: Substitution of the glycine carboxylic acid group” (Bioorg Med Chem Lett, 2002):
Several values for one entry are separate records, joined by “and”; a condition that tells them apart may be missing. Equal entries are not always repeated. Each block holds one molecule with its values, some of them ahead of it. Where a SMILES comes first, the peptide text is derived from it.

How the values were obtained:
[1] = molecular target: T1, Glutathionylspermidine synthase (Crithidia fasciculata, UniProt P90518); experiment: Concentration required for the inhibition of enzyme Glutathionylspermidine Synthetase wild-type enzyme
T1 sequence (P90518 whole entry): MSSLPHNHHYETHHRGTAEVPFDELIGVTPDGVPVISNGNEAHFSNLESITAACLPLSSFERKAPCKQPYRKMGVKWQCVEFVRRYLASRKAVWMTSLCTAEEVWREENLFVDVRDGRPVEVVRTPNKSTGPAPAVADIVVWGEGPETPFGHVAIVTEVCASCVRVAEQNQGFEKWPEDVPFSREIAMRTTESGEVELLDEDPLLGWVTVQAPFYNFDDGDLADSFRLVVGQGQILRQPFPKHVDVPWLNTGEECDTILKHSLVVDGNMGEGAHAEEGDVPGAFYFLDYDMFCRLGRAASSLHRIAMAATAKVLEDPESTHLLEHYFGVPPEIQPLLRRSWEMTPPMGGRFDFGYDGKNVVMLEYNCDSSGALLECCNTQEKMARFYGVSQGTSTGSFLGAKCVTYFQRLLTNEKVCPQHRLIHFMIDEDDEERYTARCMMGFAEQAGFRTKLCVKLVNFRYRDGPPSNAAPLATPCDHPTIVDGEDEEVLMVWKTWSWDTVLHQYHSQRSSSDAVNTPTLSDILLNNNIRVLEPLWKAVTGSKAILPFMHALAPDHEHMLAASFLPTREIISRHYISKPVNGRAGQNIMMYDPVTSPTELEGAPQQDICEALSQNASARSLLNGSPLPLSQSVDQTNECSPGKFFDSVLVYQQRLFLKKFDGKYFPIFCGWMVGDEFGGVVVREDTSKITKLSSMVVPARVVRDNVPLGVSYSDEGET

[2] = molecular target: T2, Glutathionylspermidine synthase (Crithidia fasciculata) (UniProt P90518); experiment: Compound was tested for percent inhibition towards the enzyme Glutathionylspermidine Synthetase wild-type enzyme and compared with 0.5 mM GSH
T2 sequence (whole entry): T1 sequence (P90518 whole entry)

[3] = molecular target: T1, Glutathionylspermidine synthase; experiment: Inhibition constant was evaluated against enzyme Glutathionylspermidine Synthetase wild-type enzyme
[4] = molecular target: T2, Glutathionylspermidine synthase (Crithidia fasciculata); experiment: Compound was tested for substrate activity towards the enzyme Glutathionylspermidine Synthetase wild-type enzyme and compared with 0.5 mM GSH
[5] = molecular target: T2, Glutathionylspermidine synthase (Crithidia fasciculata); experiment: (§1) Inhibitory activity against amidase free Glutathionylspermidine Synthetase mutant (C79A); settings: concentration not given here
[6] = molecular target: T2, Glutathionylspermidine synthase (Crithidia fasciculata); experiment: (§2) Substrate activity against amidase free Glutathionylspermidine Synthetase mutant (C79A)
[7] = molecular target: T3, Glutathionylspermidine synthase (Crithidia fasciculata, UniProt P90518, C79A); experiment: as §1
T3 sequence (P90518 whole entry C79A): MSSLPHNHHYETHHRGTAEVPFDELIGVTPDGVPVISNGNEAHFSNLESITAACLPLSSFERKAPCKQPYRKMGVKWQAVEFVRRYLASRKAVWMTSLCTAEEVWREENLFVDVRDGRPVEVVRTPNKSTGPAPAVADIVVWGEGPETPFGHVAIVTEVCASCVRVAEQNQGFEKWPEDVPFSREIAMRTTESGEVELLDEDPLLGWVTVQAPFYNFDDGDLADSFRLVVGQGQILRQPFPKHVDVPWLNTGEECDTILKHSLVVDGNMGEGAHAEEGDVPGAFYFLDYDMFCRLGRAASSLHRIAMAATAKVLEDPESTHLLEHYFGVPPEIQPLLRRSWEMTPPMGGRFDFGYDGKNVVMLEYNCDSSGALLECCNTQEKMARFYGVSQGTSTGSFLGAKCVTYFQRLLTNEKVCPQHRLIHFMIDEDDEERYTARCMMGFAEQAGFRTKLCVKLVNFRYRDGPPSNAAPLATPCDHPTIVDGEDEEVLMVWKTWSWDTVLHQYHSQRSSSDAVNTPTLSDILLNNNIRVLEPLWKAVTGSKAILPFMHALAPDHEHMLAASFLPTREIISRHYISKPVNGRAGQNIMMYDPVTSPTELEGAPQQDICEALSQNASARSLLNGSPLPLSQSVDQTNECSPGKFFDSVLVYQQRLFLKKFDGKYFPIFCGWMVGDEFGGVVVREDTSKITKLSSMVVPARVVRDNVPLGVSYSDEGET

[8] = molecular target: T3, Glutathionylspermidine synthase; experiment: Inhibitory constant against amidase free Glutathionylspermidine Synthetase mutant (C79A)
[9] = molecular target: T3, Glutathionylspermidine synthase; experiment: Inhibitory constant against amidase free Glutathionylspermidine Synthetase mutant (C79A); NA denotes not applicable
[10] = Half-life was determined; format: ADME; settings: human
[11] = molecular target: T1, Glutathionylspermidine synthase; experiment: Concentration required for the inhibition of enzyme Glutathionylspermidine Synthetase wild-type enzyme; NA denotes not applicable
[12] = molecular target: T3, Glutathionylspermidine synthase; experiment: Inhibitory activity against amidase free Glutathionylspermidine Synthetase mutant (C79A); NA denotes not applicable
[13] = molecular target: T1, Glutathionylspermidine synthase; experiment: Inhibition constant was evaluated against enzyme Glutathionylspermidine Synthetase wild-type enzyme; NA denotes not applicable
[14] = molecular target: T1, Glutathionylspermidine synthase; experiment: Inhibition constant was evaluated against enzyme Glutathionylspermidine Synthetase; NA denotes not applicable
[15] = substrate: CC(C)C[C@H](NC(=O)CC[C@H](N)C(=O)O)C(=O)NCc1nn[nH]n1; experiment: Michaelis-Menten constant at the concentration of < 0.4 mM; settings: Crithidia fasciculata
[16] = substrate: CC(C)C[C@H](NC(=O)CC[C@H](N)C(=O)O)C(=O)NCC(N)=O; experiment: as §2; settings: Crithidia fasciculata
[17] = substrate: CC(C)C[C@H](NC(=O)CC[C@H](N)C(=O)O)C(=O)NCC(=O)O; experiment: Compound was tested for substrate activity (Apparent Km) towards the enzyme Glutathionylspermidine Synthetase wild-type enzyme and compared with 0.5 mM GSH; settings: Crithidia fasciculata

- IC50 [1]: 60 µM
- inhibition [2]: 86%
- Ki [3]: 60 µM
- Activity [4]: 0%
Molecule: CC(C)C[C@H](NC(=O)CC[C@H](N)C(=O)O)C(=O)NCP(=O)(O)O

- IC50 [1]: 17.2 µM
- inhibition [2]: 95%
- Ki [3]: 81 µM and 18 µM
- Activity [4]: 1%
Molecule: CC(C)C[C@H](NC(=O)CC[C@H](N)C(=O)O)C(=O)NCB(O)O

- IC50 [1]: 2 µM
- inhibition [2]: 2%
- Activity [4]: 2%
Molecule: Cc1ccc(S(=O)(=O)NC(=O)CNC(=O)[C@H](CC(C)C)NC(=O)CC[C@H](N)C(=O)O)cc1

- inhibition [2]: 0%
- inhibition [5]: 26%
- Activity [4]: 102%
- Activity [6]: 3%
Molecule: CCCCOC(=O)CNC(=O)[C@H](CC(C)C)NC(=O)CC[C@H](N)C(=O)O

Molecule: CC(C)C[C@H](NC(=O)CC[C@H](N)C(=O)O)C(=O)NCC(=O)NO (HELM PEPTIDE1{[gGlu].L.G.[ON[*:1]]}$$$$V2.0)
- IC50 [7]: 3.2 µM
- inhibition [2]: 76%
- inhibition [5]: 98%
- Ki [8]: 2.5 µM
- Ki [9]: Not Active
- Activity [4]: 44%
- Activity [6]: 1%

- IC50 [1]: 138 µM
Molecule: CC(C)C[C@H](NC(=O)CC[C@H](N)C(=O)O)C(=O)NCc1nnn[nH]1

Molecule: CC(C)C[C@H](NC(=O)CC[C@H](N)C(=O)O)C(=O)NCC(N)=O (HELM PEPTIDE1{[gGlu].L.G.[am]}$$$$V2.0)
- IC50 [7]: 105 µM
- inhibition [2]: 0%
- inhibition [5]: 89%
- Ki [9]: Not Active
- Activity [4]: 93%
- Activity [6]: 22%

- inhibition [2]: 58%
- Activity [4]: 0%
Molecule: CC(C)C[C@H](NC(=O)CC[C@H](N)C(=O)O)C(=O)NCc1nn[nH]n1

Molecule: CC(C)C[C@H](NC(=O)CC[C@H](N)C(=O)O)C(=O)NCC(=O)O (HELM PEPTIDE1{[gGlu].L.G}$$$$V2.0)
- half-life [10]: 1 h
- IC50 [11]: Not Active
- IC50 [12]: Not Active
- inhibition [2]: 0%
- inhibition [5]: 0%
- Ki [13]: Not Active
- Ki [14]: Not Active
- Activity [4]: 104%
- Activity [6]: 125%

B1: Glutathionylspermidine synthase (Crithidia fasciculata), P90518 (protein)
chain: T1 sequence (P90518 whole entry)
- Km [15]: 34 µM
- Km [16]: 245 µM
- Vmax [16]: 15%
- Km [17]: 34 µM
